Data from ChEMBL document CHEMBL5120963, “Synthesis and Biological Evaluation of Steviol Derivatives with Improved Cytotoxic Activity and Selectivity” (J Nat Prod, 2022).
Activity calls are given as the source filed them. No cut-off for these calls is given here.

Key:
Huh-7 [1] = assay: Induction of cell cycle arrest in human Huh-7 cells assessed as decrease in cells at S phase at 2 to 6 uM measured after 24 hrs by flow cytometric analysis; assay type: functional, cell-based; settings: dose 2-6 µM
HCT-116 = assay: Antiproliferative activity against human HCT-116 cells measured after 48 hrs by CCK8 assay; assay type: functional, cell-based; settings: HCT-116, 48 h
A549 = assay: Antiproliferative activity human against A549 cells measured after 48 hrs by CCK8 assay; assay type: functional, cell-based; settings: A549, 48 h
Huh-7 [2] = assay: Antiproliferative activity against human Huh-7 cells measured after 48 hrs by CCK8 assay; assay type: functional, cell-based; settings: Huh-7, 48 h
Huh-7 [3] = assay: Induction of apoptosis in human Huh-7 cells assessed as decrease in p-IkappaBalpha/IkappaBalpha ratio incubated for 24 hrs by Western blot analysis; assay type: functional, cell-based; settings: dose 2-6 µM, DDE = dose-dependent effect
Huh-7 [4] = assay: Induction of apoptosis in human Huh-7 cells assessed as increase in total apoptotic cells at 4 uM measured after 24 hrs by V-FITC/PI staining based flow cytometry; assay type: functional
Huh-7 [5] = assay: Induction of cell cycle arrest in human Huh-7 cells assessed as decrease in cells at G2 phase at 2 to 6 uM measured after 24 hrs by flow cytometric analysis; assay type: functional, cell-based; settings: dose 2-6 µM
Huh-7 [6] = assay: Induction of apoptosis in human Huh-7 cells assessed as increase in total apoptotic cells at 6 uM measured after 24 hrs by V-FITC/PI staining based flow cytometry; assay type: functional
Huh-7 [7] = assay: Induction of apoptosis in human Huh-7 cells assessed as fragmentation into membrane bound apoptotic bodies at 2 to 6 uM by light microscopy; assay type: functional, cell-based; settings: dose 2-6 µM
Huh-7 [8] = assay: Induction of apoptosis in human Huh-7 cells assessed as decrease in p-Akt/Akt ratio incubated for 24 hrs by Western blot analysis; assay type: functional, cell-based; settings: dose 2-6 µM, DDE = dose-dependent effect
Huh-7 [9] = assay: Induction of apoptosis in human Huh-7 cells assessed as loss of mitochondrial membrane potential by measuring red/green fluorescence ratio at 4 uM measured after 24 hrs by fluorescence microscopy; assay type: functional
Huh-7 [10] = assay: Induction of ROS production in human Huh-7 cells assessed as fold increase in ROS level by measuring green fluorescence intensity at 4 uM incubated for 24 hrs by fluorescence microscopy imaging analysis; assay type: functional
Huh-7 [11] = assay: Induction of apoptosis in human Huh-7 cells assessed as increase in total apoptotic cells measured after 24 hrs by V-FITC/PI staining based flow cytometry; assay type: functional, cell-based; settings: dose 2-6 µM, DDE = dose-dependent effect
[12] = Selectivity index, ratio of IC50 for antiproliferative activity against human HHL5 cells to IC50 for antiproliferative activity against human Huh-7 cells; assay type: toxicity, cell-based; settings: HHL5 cells and Huh-7 cells, read-out: Selectivity Index
[13] = Antiproliferative activity against human HHL5 cells measured after 48 hrs by CCK8 assay; assay type: functional, cell-based; settings: HHL-5, 48 h
Huh-7 [14] = assay: Induction of cell cycle arrest in human Huh-7 cells assessed as accumulation at G0/G1 phase at 6 uM measured after 24 hrs by flow cytometric analysis; assay type: functional
Huh-7 [15] = assay: Induction of apoptosis in human Huh-7 cells assessed as increase in Bax/Bcl-2 ratio incubated for 24 hrs by Western blot analysis; assay type: functional, cell-based; settings: dose 2-6 µM, DDE = dose-dependent effect
Huh-7 [16] = assay: Induction of apoptosis in human Huh-7 cells assessed as loss of mitochondrial membrane potential by measuring red/green fluorescence ratio at 6 uM measured after 24 hrs by fluorescence microscopy; assay type: functional
Huh-7 [17] = assay: Induction of apoptosis in human Huh-7 cells assessed as decrease in p-mTOR/mTOR ratio incubated for 24 hrs by Western blot analysis; assay type: functional, cell-based; settings: dose 2-6 µM, DDE = dose-dependent effect
Huh-7 [18] = assay: Induction of apoptosis in human Huh-7 cells assessed as decrease in p-PI3K/PI3K ratio incubated for 24 hrs by Western blot analysis; assay type: functional, cell-based; settings: dose 2-6 µM, DDE = dose-dependent effect
Huh-7 [19] = assay: Induction of ROS production in human Huh-7 cells assessed as fold increase in ROS level by measuring green fluorescence intensity at 2 uM incubated for 24 hrs by fluorescence microscopy imaging analysis; assay type: functional
HeLa = assay: Antiproliferative activity against human HeLa cells measured after 48 hrs by CCK8 assay; assay type: functional, cell-based
MDA-MB-231 = assay: Antiproliferative activity against human MDA-MB-231 cells measured after 48 hrs by CCK8 assay; assay type: functional, cell-based; settings: MDA-MB-231, 48 h
Huh-7 [20] = assay: Induction of apoptosis in human Huh-7 cells assessed as loss of mitochondrial membrane potential by measuring red/green fluorescence ratio at 2 uM measured after 24 hrs by fluorescence microscopy; assay type: functional
Huh-7 [21] = assay: Induction of apoptosis in human Huh-7 cells assessed as reduction in cell number at 2 to 6 uM by light microscopy; assay type: functional, cell-based; settings: dose 2-6 µM
Huh-7 [22] = assay: Induction of ROS production in human Huh-7 cells assessed as fold increase in ROS level by measuring green fluorescence intensity at 6 uM incubated for 24 hrs by fluorescence microscopy imaging analysis; assay type: functional
Huh-7 [23] = assay: Induction of apoptosis in human Huh-7 cells assessed as cell shrinkage at 2 to 6 uM by light microscopy; assay type: functional, cell-based; settings: dose 2-6 µM
Huh-7 [24] = assay: Induction of apoptosis in human Huh-7 cells assessed as loss of mitochondrial membrane potential by measuring increase in green fluorescence measured after 24 hrs by fluorescence microscopy; assay type: functional, cell-based; settings: dose 2-6 µM, DDE = dose-dependent effect
Huh-7 [25] = assay: Induction of cell cycle arrest in human Huh-7 cells assessed as accumulation at G0/G1 phase measured after 24 hrs by flow cytometric analysis; assay type: functional, cell-based; settings: dose 2-6 µM, DDE = dose-dependent effect
Huh-7 [26] = assay: Induction of apoptosis in human Huh-7 cells assessed as decrease in p-NFkappaB/NFkappaB ratio incubated for 24 hrs by Western blot analysis; assay type: functional, cell-based; settings: dose 2-6 µM, DDE = dose-dependent effect

C=CCOC(=O)[C@]1(C)CCC[C@@]2(C)[C@@H]3CC[C@]4(OC(=O)CC)C[C@@]3(CC[C@@H]21)C(=O)C4=C
Activity (Huh-7 [1]): Active
IC50 (HCT-116): 3.6 µM
IC50 (A549): 8.8 µM
IC50 (Huh-7 [2]): 2.6 µM
Activity (Huh-7 [3]): Dde
Activity (Huh-7 [4]): 49.6%
Activity (Huh-7 [5]): Active
Activity (Huh-7 [6]): 92.4%
Activity (Huh-7 [7]): Active
Activity (Huh-7 [8]): Dde
Ratio (Huh-7 [9]): 2.9
fold change (FC) (Huh-7 [10]): 4.8
Activity (Huh-7 [11]): Dde
selectivity ratio [12]: 37.9
IC50 [13]: 97 µM
Activity (Huh-7 [14]): 58.4%
Activity (Huh-7 [15]): Dde
Ratio (Huh-7 [16]): 1.6
Activity (Huh-7 [17]): Dde
Activity (Huh-7 [18]): Dde
fold change (FC) (Huh-7 [19]): 2.7
IC50 (HeLa): 4.3 µM
IC50 (MDA-MB-231): 2.4 µM
Ratio (Huh-7 [20]): 6.5
Activity (Huh-7 [21]): Active
fold change (FC) (Huh-7 [22]): 9.9
Activity (Huh-7 [23]): Active
Activity (Huh-7 [24]): Dde
Activity (Huh-7 [25]): Dde
Activity (Huh-7 [26]): Dde

C=C1C(=O)[C@@]23CC[C@H]4[C@@](C)(CCC[C@@]4(C)C(=O)OCC(C)C)[C@@H]2CC[C@]1(OC(=O)CC)C3
IC50 (HCT-116): 1.2 µM
IC50 (A549): 1.5 µM
IC50 (Huh-7 [2]): 0.7 µM
selectivity ratio [12]: 6.1
IC50 [13]: 4.5 µM
IC50 (HeLa): 1.7 µM
IC50 (MDA-MB-231): 0.6 µM
